Experiments:
Assay type in all cases: in vivo, human
volunteers [1] = experiment: Sonographic / Doppler sonographic measurement of blood flow through the liver and blood pressure before and 90 minutes after oral Sildenafil; details: 100 mg oral, n = 5, baseline mean 0.83
volunteers [2] = experiment: as above; details: 100 mg oral
Protocol: With ten volunteers, the base values of the blood flow through the liver were measured in the morning before breakfast by means of common sonographic or Doppler sonographic methods. Subsequently, 100 mg Sildenafil were administered orally for each test person. On the average, 90 minutes after administration of this drug, the measurements were repeated.

[3] = tested on: patient having liver cirrhosis due to a chronic Hepatitis C; experiment: Invasive measurement of wedged hepatic vein pressure (portal vein pressure) by balloon catheter; details: one patient, 25 minutes after 10 mg oral; 31 mm Hg prior to administration
Protocol: In a patient having liver cirrhosis due to a chronic Hepatitis C, the wedged hepatic vein pressure, which can be equated with the portal vein pressure, was measured invasively. For this, a balloon catheter was introduced through the Vena jugularis interna into a small hepatic vein under X-ray control. Then, the free hepatic vein pressure may be measured, when the tip of the catheter lies freely in the lumen of the small vein. When the balloon is dilated (the diameter of this small hepatic vein amounts to a few mm), a congestion pressure is built-up at the tip of the catheter, corresponding to the portal vein pressure. In the tested patient, the portal vein pressure prior to the oral administration of a medicament was at 31 mm Hg.

[4] = tested on: patients having portal hypertension (origin: liver cirrhosis in the status of Child A); experiment: Doppler sonography of liver haemodynamics before and 1 h after oral Vardenafil, patients; details: continuous measurement after 10 mg oral, FIG. 4
Protocol: In a further study, 16 healthy volunteers and 15 patients having portal hypertension (origin: liver cirrhosis in the status of Child A) were subjected to the following treatment:
In both the volunteers and the patients with empty stomach (10 hours of food leave), firstly the pulse rate and blood pressure under lying condition and subsequently the parameters of liver haemodynamics were measured by Doppler sonography.
The portal vein pressure is derived from the values obtained from the application of the apparatus Elegra from Siemens having a 3.5 MHz sectorial scanner (K. Haag et al., Am. J. Roentgenol 1999; 172: 631-635). Each measurement was carried out three times in total. The mean value from all three measurements was used. The measurements were carried out in the resting expiratory position. When measuring the flows and the flow volumina, the sonic angle lied below 60°. The sectional plane was basically chosen such that the vessel will be illustrated in its longitudinal route.
Flow measurements in the Vena portae as well as in their intrahepatic main stems. The determination of the flow volume in the portal vein, the Vena lienalis and the Vena mesenterica was carried out by Doppler-sonography, as measured by the options of the apparatus and by calculation through the formula: flow=π·d^2/4·Vmax2·60, wherein d is indicated in cm and Vmax is indicated in cm/s. Vena Lienalis: […]

[5] = tested on: patients, who had a pathological collateral or detour circulation, as originally caused by liver cirrhosis; experiment: Doppler sonography of flow in the porto-systemic detour circulation before and after oral Vardenafil; details: two patients, single oral administration of 10 mg
Protocol: Hereby, before and after a single oral administration of 10 mg Vardenafil, the flow in the porto-systemic detour circulation was measured by Doppler-sonography: once in a patient having V. coronaria ventriculi as well as oesophagus varices, and another time in a patient having re-opened V. umbilicalis.

CCCc1nn(C)c2c(=O)[nH]c(-c3cc(S(=O)(=O)N4CCN(C)CC4)ccc3OCC)nc12 [Sildenafil, 1-{[3-(6,7-Dihydro-1-methyl-7-oxo-3-propyl-1H-pyrazolo-[4,3-d]pyrimidin-5-yl)-4-ethoxyphenyl]sulfonyl}-4-methyl-piperazine]
Portal vein flow, change by Sildenafil (absolute) (volunteers [1]): +0.27 l/mm | Diameter of V. lienalis, change by Sildenafil (in %) (volunteers [2]; 90 minutes, n = 10): +13% | Diameter of portal vein, change by Sildenafil (in %) (volunteers [2]; 90 minutes, n = 10): +12.8% | Diastolic blood pressure, change by Sildenafil (in %) (volunteers [2]; 90 minutes, n = 10): −9.5% | Resistivity Index of A. hepatica communis, change by Sildenafil (in %) (volunteers [2]; 90 minutes, n = 10): +4.48% | Resistivity Index of Truncus coeliacus, change by Sildenafil (in %) (volunteers [2]; 90 minutes, n = 10): −1.5% | Vmax of V. lienalis, change by Sildenafil (in %) (volunteers [2]; 90 minutes, n = 10): −2.3% | Vmax of portal vein, change by Sildenafil (in %) (volunteers [2]; 90 minutes, n = 10): −5.3% | Resistivity Index of A. hepatica communis, change by Sildenafil (absolute) (volunteers [2]; 90 minutes, n = 10, baseline mean 0.67): +0.03 | Resistivity Index of Truncus coeliacus, change by Sildenafil (absolute) (volunteers [2]; 90 minutes, n = 10, baseline mean 0.75): −0.115 | Diameter of V. lienalis, change by Sildenafil (absolute) (volunteers [2]; 90 minutes, n = 10, baseline mean 7.7): 1.0 mm | Diameter of portal vein, change by Sildenafil (absolute) (volunteers [2]; 90 minutes, n = 10, baseline mean 11.7): 1.5 mm | Vmax of V. lienalis, change by Sildenafil (absolute) (volunteers [2]; 90 minutes, n = 10, baseline mean 20.14): -0.47 cm/s | Vmax of portal vein, change by Sildenafil (absolute) (volunteers [2]; 90 minutes, n = 10, baseline mean 30.5): -1.63 cm/s | Diastolic blood pressure, change by Sildenafil (absolute) (volunteers [2]; 90 minutes, n = 10, baseline mean 80.5): −7.64 mm Hg | Systolic blood pressure, change by Sildenafil (in %) (volunteers [2]; on average 90 minutes after administration, n = 10): −10.0% | Systolic blood pressure, change by Sildenafil (absolute) (volunteers [2]; on average 90 minutes after administration, n = 10, baseline mean 122): −12.21 mm Hg

CCCc1nc(C)c2c(=O)[nH]c(-c3cc(S(=O)(=O)N4CCN(CC)CC4)ccc3OCC)nn12 [Vardenafil]
Portal vein pressure (wedged hepatic vein pressure) [3]: 26 mm Hg | Time after which increase of flow velocity in the portal vein and portal vein flow is clearly detectable ([4]; individual patient (liver cirrhosis), similar in practically all other patients): 15 min | Time at which effect on portal vein flow is most pronounced ([4]; individual patient): 20 to 30 min | Decrease of flow in the V. coronaria ventriculi or in the umbilical vein [5]: about 30%
